From patent US20090111774A1, “PMEA LIPID CONJUGATES” (Luitpold Pharmaceuticals, Inc., priority 2007, published 2009)
“And” between values parts separate entries of the source, which are not always exact repeats. Identical values can stand only once.

Assays:
[1] = cited from earlier work
[2] = molecular target: human immunodeficiency virus-specified reverse transcriptase (Human immunodeficiency virus type 1 group M subtype B, UniProt P04585); details: HIV reverse transcriptase; cited from earlier work
[3] = molecular target: cellular DNA polymerase alpha (Homo sapiens, UniProt P09884); details: cited from earlier work
[4] = system: Dengue; test: In vitro antiviral screening (selectivity index), Dengue; assay type: cell-based
[5] = system: VZV; test: In vitro antiviral screening (selectivity index), VZV; assay type: cell-based, varicella-zoster virus
[6] = system: HCMV; test: In vitro antiviral screening (selectivity index), HCMV; assay type: cell-based, herpes cytomegalovirus
[7] = system: HSV-2; test: In vitro antiviral screening (selectivity index), HSV-2; assay type: cell-based, herpes simplex virus type 2
[8] = system: HSV-1; test: In vitro antiviral screening (selectivity index), HSV-1; assay type: cell-based, herpes simplex virus type 1
[9] = system: Punta Toro; assay type: cell-based
[10] = system: RSV A; test: In vitro antiviral screening (selectivity index), RSV A; assay type: cell-based
[11] = system: PIV; assay type: cell-based
[12] = system: Flu A; assay type: cell-based
[13] = system: VEE; assay type: cell-based
[14] = system: Vaccinia; assay type: cell-based
[15] = system: Rift Valley Fever; assay type: cell-based
[16] = system: SARS; assay type: cell-based
[17] = system: Cowpox; assay type: cell-based
[18] = system: HPV-11; test: In vitro antiviral screening (selectivity index), HPV-11; assay type: cell-based; details: human papillomavirus (HPV)
[19] = system: Flu B; assay type: cell-based
[20] = system: Adeno; assay type: cell-based
[21] = system: Measles; test: In vitro antiviral screening (selectivity index), Measles (NR assay); assay type: cell-based, measles virus
[22] = system: RV 2; assay type: cell-based
[23] = system: BK (polyoma); assay type: cell-based, polyoma (BK) virus
[24] = system: Tacaribe; assay type: cell-based
[25] = system: Pichinde; assay type: cell-based
[26] = system: Yellow Fever; assay type: cell-based
[27] = system: microtubule assembly; details: Bradley et al., Clin. Cancer Res. 2001; cited from earlier work

Chain of cellular DNA polymerase alpha (P09884 whole entry): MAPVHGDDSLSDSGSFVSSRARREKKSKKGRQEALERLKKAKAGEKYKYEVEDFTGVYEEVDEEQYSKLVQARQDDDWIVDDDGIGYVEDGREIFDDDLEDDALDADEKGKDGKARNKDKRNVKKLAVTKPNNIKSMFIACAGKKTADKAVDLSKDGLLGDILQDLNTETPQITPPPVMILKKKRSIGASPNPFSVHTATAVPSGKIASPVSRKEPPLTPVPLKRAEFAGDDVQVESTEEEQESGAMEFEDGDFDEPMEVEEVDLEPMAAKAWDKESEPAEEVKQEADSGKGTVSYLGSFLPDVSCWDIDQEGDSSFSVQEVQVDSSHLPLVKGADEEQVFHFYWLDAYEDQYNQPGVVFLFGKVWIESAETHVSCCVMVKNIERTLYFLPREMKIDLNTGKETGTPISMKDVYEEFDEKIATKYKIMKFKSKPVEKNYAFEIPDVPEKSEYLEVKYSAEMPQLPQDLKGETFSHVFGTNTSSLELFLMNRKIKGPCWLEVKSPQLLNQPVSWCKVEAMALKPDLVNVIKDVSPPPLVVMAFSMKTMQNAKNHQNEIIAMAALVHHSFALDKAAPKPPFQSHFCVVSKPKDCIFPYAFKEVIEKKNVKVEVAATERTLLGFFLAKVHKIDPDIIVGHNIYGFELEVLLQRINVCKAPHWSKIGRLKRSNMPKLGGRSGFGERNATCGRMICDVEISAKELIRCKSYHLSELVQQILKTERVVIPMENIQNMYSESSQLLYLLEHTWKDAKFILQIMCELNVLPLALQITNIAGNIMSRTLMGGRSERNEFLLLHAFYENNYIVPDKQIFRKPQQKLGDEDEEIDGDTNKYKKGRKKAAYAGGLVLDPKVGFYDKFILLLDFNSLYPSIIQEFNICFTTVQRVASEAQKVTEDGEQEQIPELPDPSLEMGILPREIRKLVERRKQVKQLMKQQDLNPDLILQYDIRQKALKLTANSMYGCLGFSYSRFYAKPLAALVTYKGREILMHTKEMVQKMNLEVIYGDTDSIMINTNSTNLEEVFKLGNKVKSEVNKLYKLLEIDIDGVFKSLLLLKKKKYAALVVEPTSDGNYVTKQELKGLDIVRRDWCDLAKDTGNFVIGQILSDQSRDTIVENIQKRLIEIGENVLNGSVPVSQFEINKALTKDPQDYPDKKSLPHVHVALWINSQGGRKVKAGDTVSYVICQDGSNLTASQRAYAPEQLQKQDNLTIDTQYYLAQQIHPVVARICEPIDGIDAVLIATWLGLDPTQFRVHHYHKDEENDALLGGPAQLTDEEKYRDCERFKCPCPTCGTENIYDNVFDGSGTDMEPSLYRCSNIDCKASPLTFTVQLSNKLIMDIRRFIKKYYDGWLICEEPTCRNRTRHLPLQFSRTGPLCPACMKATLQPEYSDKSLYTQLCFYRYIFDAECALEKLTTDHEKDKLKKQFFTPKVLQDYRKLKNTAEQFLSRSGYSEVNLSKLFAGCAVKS

For `Nc1ncnc2c1ncn2CCOCP(=O)(O)OP(=O)(O)OP(=O)(O)O` [PMEApp], the intracellular half-life [1] is given as 16 to 18 h, the Ki/Km [2] is given as 0.01 and the Ki/Km [3] is given as 0.60.
In the case of `CCCCCCCC/C=C\CCCCCCCC(=O)NC1=NC=NC2C1N=CN2CCOCP(=O)([O-])[O-].[Na+].[Na+]` (stereo not drawn) [Formula III, PMEA-oleyl amide], the “SI (selectivity index)” value [4] is reported as 1, the “antiviral activity / sensitivity of virus” value [5] is reported as “sensitive” and the “SI (selectivity index)” value [6] is reported as 1. The “SI (selectivity index)” value ([7]; HSV-2 (1), first replicate) was >8.5, the “SI (selectivity index)” value ([7]; HSV-2 (2), second replicate) was 5.7 and the “antiviral activity / sensitivity of virus” value ([7]; HSV-2, in vitro) was “sensitive only to the compound of Formula III”. The “SI (selectivity index)” value ([8]; HSV-1 (1), first replicate) was >17.8, the “SI (selectivity index)” value ([8]; HSV-1 (2), second replicate) was >143 and the “antiviral activity / sensitivity of virus” value ([8]; HSV-1, in vitro) was “sensitive only to the compound of Formula III”. For the same compound, the “SI (selectivity index)” value [9] was 1, the “SI (selectivity index)” value [10] was 1 and the “SI (selectivity index)” value [11] was 1. For the same compound, the “SI (selectivity index)” value [12] was 1, the “SI (selectivity index)” value [13] was 1 and the “SI (selectivity index)” value [14] was 1 and >2. For the same compound, the “SI (selectivity index)” value [15] was 1, the “SI (selectivity index)” value [16] was 1 and the “SI (selectivity index)” value [17] was 1. The “antiviral activity / sensitivity of virus” value [18] was “sensitive only to the compound of Formula III”, the “SI (selectivity index)” value [19] was 1 and the “SI (selectivity index)” value [20] was 1. For the same compound, the “SI (selectivity index)” value ([21]; Measles (NR assay)) was >20, the “antiviral activity / sensitivity of virus” value ([21]; measles virus, in vitro) was “sensitive only to the compound of Formula III” and the “SI (selectivity index)” value [22] was 1. For the same compound, the “SI (selectivity index)” value [23] was >213, the “antiviral activity / sensitivity of virus” value [23] was “sensitive” and the “SI (selectivity index)” value [24] was 2. For the same compound, the “SI (selectivity index)” value [25] was 1 and the “SI (selectivity index)” value [26] was 1.
In the case of `CC/C=C\C/C=C\C/C=C\C/C=C\C/C=C\C/C=C/CCC(=O)O[C@@H](C(=O)O[C@H]1C[C@@]2(O)[C@@H](OC(=O)c3ccccc3)C3[C@](C)(C(=O)[C@H](OC(C)=O)C(=C1C)C2(C)C)[C@@H](O)C[C@H]1OC[C@@]31OC(C)=O)[C@@H](NC(=O)c1ccccc1)c1ccccc1` (stereo partly drawn) [DHA-paclitaxel], the “activity as intact conjugate” value [27] is listed as “inactive as intact conjugates”.
